Assay results reported in the supplement of paper PMC5844555.

Tests used:
Test in all cases: 3' UTR reporter interaction score (median-centred robust z-score of log2 firefly/Renilla activity); higher = less repression of the 3' UTR reporter
Conditions in all cases: HEK293T; 48 h
[1] = test system: BRCA2
In short: (§1)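 Firefly and Renilla luciferase activities were read 48 h post-transfection in HEK293T cells (10,000/well, 96-well plates). The cells had received 100 ng firefly luc2P reporter bearing the gene's 3' UTR, 20 ng Renilla pRL-TK control and 2.5 pmol miRNA mimic via DharmaFECT Duo. The interaction score, where more negative means interaction, is a per-plate robust z-score (median, median absolute deviation) of the log firefly/Renilla ratio, median-centred per miRNA and averaged over at least two independent screens.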

[2] = test system: EZH2
In short: as §1

[3] = test system: FBXW7
In short: as §1

[4] = test system: HRAS
In short: as §1

[5] = test system: MYB
In short: as §1

[6] = test system: MYCN
In short: as §1

[7] = test system: MYC
In short: as §1

[8] = test system: MYT1L
In short: as §1

[9] = test system: NOTCH1
In short: as §1

[10] = test system: PHF6
In short: as §1

[11] = test system: PHOX2B
In short: as §1

[12] = test system: RB1
In short: as §1

[13] = test system: TP53
In short: as §1

[14] = test system: ZEB2
In short: as §1

| Sequence | 3' UTR reporter interaction score [1] | 3' UTR reporter interaction score [2] | 3' UTR reporter interaction score [3] | 3' UTR reporter interaction score [4] | 3' UTR reporter interaction score [5] | 3' UTR reporter interaction score [6] | 3' UTR reporter interaction score [7] | 3' UTR reporter interaction score [8] | 3' UTR reporter interaction score [9] | 3' UTR reporter interaction score [10] | 3' UTR reporter interaction score [11] | 3' UTR reporter interaction score [12] | 3' UTR reporter interaction score [13] | 3' UTR reporter interaction score [14] |
| --- | --- | --- | --- | --- | --- | --- | --- | --- | --- | --- | --- | --- | --- | --- |
| UAAAUCCCAUGGUGCCUUCUCCU | 0.0242 | 0.24 | -0.794 | -0.598 | -0.131 | 1.04 | 0.0891 | -0.319 | 0.16 | 1.14 | 0.298 | 0.989 | 0.00864 | -0.698 |
| UAACACUGUCUGGUAAAGAUGG | -0.392 | -0.173 | -0.104 | 0.0521 | 0.229 | 0.21 | 0.0647 | -4.79 | -0.447 | -1.93 | -0.774 | 0.257 | 0.617 | -7.02 |
| UAACACUGUCUGGUAACGAUGU | 0.575 | -0.274 | 0.00413 | 0.337 | 0.219 | -0.465 | -0.268 | -5.06 | 0.173 | 1.8 | -0.223 | 0.104 | -0.247 | -5.66 |
| UAACAGUCUACAGCCAUGGUCG | -0.186 | 1.32 | -0.629 | 0.64 | 0.1 | 0.783 | 0.473 | 1 | -0.392 | -0.351 | -0.125 | -1.41 | -1.07 | -0.631 |
| UAACAGUCUCCAGUCACGGCC | -0.504 | 0.108 | 0.973 | -0.229 | -1.89 | 0.167 | -0.0995 | 1.02 | -0.389 | -0.767 | -0.145 | -2.21 | -0.811 | 1.77 |
| UAAGGUGCAUCUAGUGCAGAUA | -0.222 | 0.286 | 0.264 | -0.481 | 0.537 | -0.0167 | 0.199 | 0.136 | 0.283 | -0.951 | -0.0776 | -0.171 | 0.495 | -0.0823 |
| UAAGGUGCAUCUAGUGCAGUUA | -0.228 | 0.311 | -0.313 | -0.399 | 0.34 | 0.0551 | 0.863 | -0.221 | 0.564 | -1.71 | 0.37 | -0.473 | 0.488 | -0.449 |
| UAAGUGCUUCCAUGUUUCAGUGG | 0.202 | -0.665 | 0.421 | 0.114 | -0.991 | 0.305 | -0.0462 | -1.46 | 0.788 | 0.57 | -0.0319 | 0.571 | -0.245 | 0.969 |
| UAAGUGCUUCCAUGUUUGAGUGU | -0.334 | -0.327 | 0.795 | 0.22 | -0.941 | 0.678 | -0.0168 | -0.74 | 0.935 | -0.0188 | 0.566 | 0.167 | -0.124 | 1.47 |
| UAAGUGCUUCCAUGUUUUAGUAG | -0.649 | -0.765 | 0.557 | 0.314 | -0.833 | 0.56 | -0.0722 | -1.12 | 1.36 | 0.487 | -0.86 | 0.351 | 0.0485 | 1.24 |
